Literature values, collected in patent publication US20200299317A1 (Tokuyama Corporation, priority 2018, published 2020).

Conditions: ferric citrate obtainable per Patent Literature 2

ferric citrate
BET specific surface area: 20 to 45 m^2/g
